The values below come from US20110015223A1, “Compounds and methods for treatment of cancer-related anemia” (FibroGen, Inc., priority 2006, published 2011).

Test [1] relates to human H-460 lung cancer tumor-bearing nude mice. Description: Blood parameters in nude mice with subcutaneous H-460 lung tumors (anemia of cancer, Example 1). As to conditions: M, W, F x 4, subcutaneous H-460 tumors, study endpoint. The class given is in vivo. From the text: (§1) Immuno-compromised athymic CD-1 nu/nu nude mice males (5-6 weeks old) were used in this study (Charles River Laboratories, Wilmington, Mass.). Animals were maintained in a HEPA-filtered environment during the experimental period. Cages, food, and bedding were autoclaved. Animal diets were obtained from Harlan Teklad (Madison, Wis.).
Compounds of the invention were pre-formulated in an aqueous vehicle consisting of 0.1% (w/w) Polysorbate 80 (JT Baker) and 0.5% (w/w) high viscosity carboxymethyl cellulose sodium (Spectrum) to achieve a final 10 ml/kg dosing (oral gavage).
The human H-460 lung cancer cell line used was obtained from the National Cancer Institute. […] The resulting tumor was maintained in nude mice subcutaneously as tumor stock prior to use. Tumor implantation was performed when the stock tumors were in log phase of growth. […] Necrotic tissues were dissected away and viable tissues were cut into 1-2 mm^2 pieces. Tumor fragments were then transplanted subcutaneously to the right flank of the nude mice.
Treatment (administration of compounds of the present invention) was started when the inoculated tumors reached approximately 100 mm^3, and continued for four weeks.
These include red blood cell counts, hemoglobin, hematocrit, mean corpuscular volume, mean corpuscular hemoglobin, mean corpuscular hemoglobin concentration, red blood cell distribution, reticulocytes, reticulocyte counts, and immature reticulocyte fraction.

For test [2], the system named is OVCAR3 tumor-bearing female CB.17 SCID mice. Briefly: Hematocrit in OVCAR3 ovarian tumor-bearing SCID mice (Example 5, FIG. 2). As to conditions: in words (FIG. 2); 60 mg/kg; 29 days treatment. The class given is in vivo. The source says: Tumors used in this study were OVCAR3 ovarian tumors. OVCAR3 tumor fragments (1 mm^3) were implanted subcutaneously into the flanks of female CB.17 SCID mice. The number of animals in each treatment group was 10. […] After 29 days treatment, animals were sacrificed and blood was collected for determination of hematocrit (HCT).

The test system of test [3] is MDA-MB-435-GFP breast tumor-bearing female CD-1 nude mice. The conditions noted are these: in words (FIG. 1); 20 mg/kg or 60 mg/kg; 33 days treatment; MDA-MB-435-GFP breast tumors. Here is the method:
The effectiveness of methods and compounds of the present invention at treating or preventing the development of anemia of cancer was examined as follows. In this study, experiments were performed essentially as described above in Example 1, with the following modifications. Tumors used in this study were MDA-MB-435-GFP breast tumors, and surgical orthotopic tumor fragment implantation was done directly into breast tissue of female CD-1 nude animals. The number of animals in each group was 15. […] After mean tumor volume in the vehicle control group exceeded 1 cm^3, animals were sacrificed (33 days treatment) and hematocrit was measured.

Test [4] concerns A549 human lung tumor-bearing nude mice. Briefly: Plasma erythropoietin (EPO) by ELISA in nude mice with subcutaneous A549 lung tumors (Example 2). The class given is in vivo. As to conditions: for Mean [EPO]: four weeks, plasma 6 hours after final dose; for plasma EPO levels compared to vehicle-treated control animals: in words, Compound A 20 or 60 mg/kg, Compound C 20 mg/kg, Compound D 20 or 60 mg/kg as worded in text.
Description: as §1
Compounds of the invention were formulated in an aqueous vehicle consisting of 0.1% (w/w) Polysorbate 80 (JT Baker) and 0.5% (w/w) high viscosity carboxymethyl cellulose sodium (Spectrum) to achieve a final 10 ml/kg dosing (oral gavage).
The A549 human lung cancer cell line was used. This cell line has been characterized extensively.
A stock tumor was developed by subcutaneoulsy injecting an A549 cell suspension into stock mice. The resulting tumor was maintained subcutaneously as tumor stock prior to use. Tumor implantation was performed when the stock tumors were in log phase of growth. […] Necrotic tissues were dissected away and viable tissues were cut into 1-2 mm^2 pieces. Tumor fragments were then transplanted subcutaneously to the right flank of the nude mice.
Administration of compounds of the present invention (administered three-times per week) was initiated when the inoculated tumors reached approximately 100 mm^3, and continued for four weeks thereafter.
Plasma was isolated from the animals 6 hours following administration of the final dose of compound. Plasma erythropoietin (EPO) levels were determined by ELISA.
Background: In an ELISA, binding on a coated surface is turned into a signal by an enzyme label.

Test [5] has as its system H-460-GFP human lung tumor-bearing nude mice (orthotopically xenografted). Description: RBC, HGB and HCT in nude mice with orthotopic H-460-GFP lung tumors (Example 3). The class given is in vivo. As to conditions: 20 mg/kg three-times per week; whole blood 6 hours after final dose; orthotopic H-460-GFP tumors; mean +/- SD. Here is the method: (§2) The effectiveness of administration of compounds of the present invention at preventing the development of anemia of cancer or at treating anemia of cancer in an animal model of cancer was examined. […] Genetically-engineered tumors of GFP-transfected H-460 cells were used in this study. The human H-460 lung cancer cell line used was obtained from the National Cancer Institute. […] Compounds were administered three-times per week
Whole blood was collected from these animals 6 hours following administration of the final dose of compound. Various measurable blood parameters indicative of erythropoiesis and treatment of anemia (red blood cell count, hemoglobin, and hematocrit) were analyzed.

Test [6] shares this test system. Briefly: Plasma erythropoietin (EPO) by ELISA in nude mice with orthotopic H-460-GFP lung tumors (Example 3). The class given is in vivo. As to conditions: orthotopic H-460-GFP tumors; for plasma EPO levels compared to vehicle-treated control animals: in words, Compound A 20 or 60 mg/kg, Compounds C, D, E 20 mg/kg. Here is the method:
as §2
Plasma was isolated from these animals 6 hours following administration of the final dose of compound. Plasma erythropoietin (EPO) levels were determined by ELISA.

[7] abbreviates: 20 mg/kg oral gavage three-times per week.
Where [8] appears, read: 20 mg/kg three-times per week, plasma 6 hours after final dose.

Marks after values point to notes of the source that are not given here.

For `O=C(O)CNC(=O)c1nc(Cl)c2ccccc2c1O` [Cmpd A], in test [1] (20 mg/kg PO), the “Abs Retic, reticulocyte count” value is given as 559; the “HCT, hematocrit” value is recorded as 40.4%; the “HGB, hemoglobin” value was found to be 13.3 g/dL; the “IRF, immature RET fraction” value worked out at 0.63. In test [1] (20 mg/kg PO), the “MCH, mean corpuscular hemoglobin” value was found to be 15.1 pg; the “MCHC, MCH concentration” value was 33.1 g/dL; the “RDW, RBC distribution width” value amounted to 21.3%; the “RET, reticulocytes” value is 6.4%. For the same molecule, in test [1] (60 mg/kg PO), the “Abs Retic, reticulocyte count” value came to 539; the “HCT, hematocrit” value turned out to be 39.5%; the “HGB, hemoglobin” value turned out to be 13.5 g/dL; the “IRF, immature RET fraction” value stood at 0.65. In addition, in test [1] (60 mg/kg PO), the “MCH, mean corpuscular hemoglobin” value turned out to be 15.6 pg; the “MCHC, MCH concentration” value is 34.2 g/dL; the “RDW, RBC distribution width” value was found to be 23.6%; the “RET, reticulocytes” value was 6.5%. Moreover, in test [2], the “hematocrit levels in OVCAR3 tumor-bearing animals” value is “increased”. The “hematocrit levels compared to non-treated control animals with cancer” value in test [3] is on record as “increased”.
For the molecule `C[C@H](NC(=O)c1ncc2cc(Oc3ccccc3)ccc2c1O)C(=O)O` [Cmpd B, (S)-2-[(4-Hydroxy-7-phenoxy-isoquinoline-3-carbonyl)-amino]-propionic acid], in test [1] (6 mg/kg PO), the “Abs Retic, reticulocyte count” value amounted to 653; the “HCT, hematocrit” value came out at 37.7%; the “HGB, hemoglobin” value turned out to be 12.7 g/dL; the “IRF, immature RET fraction” value is reported as 0.64. For the same molecule, in test [1] (6 mg/kg PO), the “MCH, mean corpuscular hemoglobin” value stood at 14.6 pg; the “MCHC, MCH concentration” value is 33.8 g/dL; the “MCV, mean corpuscular volume” value is 43.2 fL; the “RBC, red blood cells” value amounted to 8.71e+06 µL⁻¹. In test [1] (6 mg/kg PO), the “RDW, RBC distribution width” value is 21.4% and the “RET, reticulocytes” value came out at 7.5%. In test [1] (20 mg/kg PO), the “Abs Retic, reticulocyte count” value turned out to be 552; the “HCT, hematocrit” value is given as 37.7%; the “HGB, hemoglobin” value was 12.7 g/dL; the “IRF, immature RET fraction” value is reported as 0.56. Also, in test [1] (20 mg/kg PO), the “MCH, mean corpuscular hemoglobin” value was determined as 14.5 pg; the “MCHC, MCH concentration” value came out at 33.7 g/dL; the “MCV, mean corpuscular volume” value turned out to be 43.0 fL; the “RBC, red blood cells” value was determined as 8.78e+06 µL⁻¹. Further, in test [1] (20 mg/kg PO), the “RDW, RBC distribution width” value amounted to 21.7% and the “RET, reticulocytes” value came to 6.3%.
With `COc1ccc(Oc2ccc3c(O)c(C(=O)NCC(=O)O)ncc3c2)cc1` [Cmpd C, {[4-Hydroxy-7-(4-methoxy-phenoxy)-isoquinoline-3-carbonyl]-amino}-acetic acid], in test [1] (20 mg/kg PO), the “Abs Retic, reticulocyte count” value is reported as 457; the “HCT, hematocrit” value is given as 41.1%; the “HGB, hemoglobin” value turned out to be 14.0 g/dL; the “IRF, immature RET fraction” value worked out at 0.56. Further, in test [1] (20 mg/kg PO), the “MCH, mean corpuscular hemoglobin” value stood at 14.9 pg; the “MCHC, MCH concentration” value came out at 34.1 g/dL; the “MCV, mean corpuscular volume” value came to 43.8 fL; the “RBC, red blood cells” value came to 9.36e+06 µL⁻¹. Besides, in test [1] (20 mg/kg PO), the “RDW, RBC distribution width” value was found to be 22.3% and the “RET, reticulocytes” value was 4.9%. For the same molecule, in test [4] (setting [7]), the “Mean [EPO]” value is on record as 3581* pg/ml. Further, the “plasma EPO levels compared to vehicle-treated control animals” value in test [4] is “increased”. For the same molecule, in test [5], the HCT is recorded as 47.2 +/− 5.6%, the HGB worked out at 16.3 ± 1.6 g/dL and the RBC is listed as 9.8 +/− 1.1. In addition, the “Average [EPO]” value in test [6] (setting [8]) amounted to 5898 pg/mL. Moreover, in test [6], the “plasma EPO levels compared to vehicle-treated control animals” value was “elevated”.
Regarding `Cc1nc(C(=O)NCC(=O)O)c(O)c2ccc(Oc3ccccc3)cc12` [Cmpd D, [(4-Hydroxy-1-methyl-7-phenoxy-isoquinoline-3-carbonyl)-amino]-acetic acid], in test [4] (6 mg/kg oral gavage three-times per week), the “Mean [EPO]” value is 455 pg/mL. For the same molecule, the “Mean [EPO]” value in test [4] (setting [7]) came to 489 pg/mL. The “plasma EPO levels compared to vehicle-treated control animals” value in test [4] was “increased”. Moreover, in test [5], the HCT is 45.6 +/− 1.8%, the HGB stood at 15.4 ± 0.6 g/dL and the RBC is 9.3 +/− 0.5. For the same molecule, in test [6] (setting [8]), the “Average [EPO]” value came to 2176 pg/mL. For the same molecule, the “plasma EPO levels compared to vehicle-treated control animals” value in test [6] is on record as “elevated”. Moreover, the “hematocrit levels in OVCAR3 tumor-bearing animals” value in test [2] was “increased”.
In the case of “rhEPO: recombinant human erythropoietin (EPO)”, the “Average [EPO]” value in test [6] (rhEPO group, dose not given, plasma) was determined as 215 pg/mL.
